# Data reported in paper PMC10244169, “Psychedelics promote plasticity by directly binding to BDNF receptor TrkB” (Nature Neuroscience, 2023).
# Legend:
# [1] = target: T1, WT:Y433F heterodimers (Y433F^+/−) (Rattus norvegicus, UniProt Q63604, Y433F); test: Split-luciferase PCA of TrkB dimerization in N2a cells; type: cell-based; conditions: for TrkB dimerization time course, group mean (time 0 = 100): TRKB.Y433F; for TrkB dimerization: WT:Y433F heterodimers; for TrkB dimerization (PCA), group mean (vehicle = 100): Y433F+/-
# T1 construct: expressed in transfected cells; host or cells: N2a
# Summary of the method: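 N2a cells transiently co-transfected with split hGLuc-tagged rat TrkB pairs (WT/WT or Y433F/WT) for dimerization; Ketanserin, M100907 or TRKB.FC added 10 min before treatment. Luminescence read after injection of native coelenterazine ([…] final).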
# TrkB = target: T2, TrkB (Rattus norvegicus, UniProt Q63604); test: biochemical; type: binding; conditions: for Bmax (best-fit, 1b) / h (best-fit, 1b): competition with ^3H-LSD
# T2 construct: expressed in transfected cells; host or cells: HEK293T
# TrkB(WT):Fyn = target: T3, TrkB(WT):Fyn (Rattus norvegicus, UniProt Q63604); test: PCA of TrkB interaction with lipid raft Fyn in N2a cells; type: cell-based
# T3 construct: expressed in transfected cells; host or cells: N2a
# Experimental: (§1) Ketanserin, M100907 and TRKB.FC were added to the media 10 min before treatment. The PCA method was performed as previously described[11],[75],[76]. Split humanized Gaussia princeps luciferase (hGLuc) was cloned on the C-terminus of the reporter proteins TrkB (WT and Y433F) and lipid raft Fyn. If the reporter proteins that carry complementary halves of the luciferase interact, the enzyme can refold in its functional conformation and, upon addition of its substrate, produce luminescence proportionally to the amount of reporter proteins interacting at a given time. N2a cells were seeded in 96-well plates with opaque walls and transparent bottom (PerkinElmer, ViewPlate 96). Cells were transfected with Lipofectamine 2000 according to the manufacturer’s instructions 24 h post-plating with the PCA pair plasmids: phGLuc(1C)-TrkB(WT) or the mutant phGLuc(1C)-TrkB(Y433F) and phGLuc(2 C)-TrkB(WT) for the dimerization experiments; phGLuc(1C)-lipid raft Fyn and phGLuc(2C)-TrkB(WT) or phGLuc(2C)-TrkB(Y433F) for the lipid raft localization experiments. Forty-eight hours post transfection, cells were treated (40 min, 37 °C) in phenol red-free Dulbecco’s modified Eagle medium without serum. […] The PCA signal was detected with the substrate for the luciferase, native coelenterazine, which was injected into each well directly in the plate reader at a final concentration of […]. One data point was excluded from Fig. 4b by applying Grubb’s method for outlier detection test, which detected it as a significant outlier.
# TrkB(Y433F):Fyn = target: T4, TrkB(Y433F):Fyn (Rattus norvegicus, UniProt Q63604, Y433F); test: as above; type: cell-based; conditions: Y433F^+/− dimers
# T4 construct: expressed in transfected cells; host or cells: N2a
# Experimental: as §1
# [2] = tested on: spine density of neuronal cultures; test: Spinogenesis in mature neuronal cultures (WT and Y433F^+/−); type: cell-based, mouse; set-up: 6d: Mean (spinogenesis, spine density) / 6e: Mean (spinogenesis, spine density): unit not given here; conditions: for 6e: Mean (spinogenesis, spine density): Vehicle:Vehicle mean 7.05; for spine density: cultures from WT mice, 24 h, 100 nM
# Experimental: Spinogenesis experiments were performed similarly to previous studies[12],[13] with modifications. […] In a separate set of experiments to study the effects of extracellular BDNF and 5-HT2A activation, cultures were also pretreated for 10 min with TrkB.FC (200 ng ml^−1) or M100907 (100 nM), respectively. TrkB.FC and M100907 remained in the medium for the rest of the experiment. Twenty-four hours later, coverslips were fixed with 4% PFA, washed with PBS, incubated with blocking buffer (0.1% Triton X-100, 0.05% Tween-20, 10% normal donkey serum, 1% BSA and 0.1% gelatin in PBS) for 1 h at room temperature and then overnight with rabbit anti-MAP2 (Invitrogen, PA5-17646; 1:100) primary antibody at 4 °C. After washing with PBS, coverslips were incubated with CF568-conjugated donkey anti-rabbit (Biotium, 20098; 1:500) for 1 h at room temperature. Another round of PBS washes was followed by incubation with Alexa Fluor 647-conjugated phalloidin (Invitrogen, A22287; 1:40) overnight at 4 °C. Next, coverslips were briefly washed in phosphate buffer (PB) and mounted on slides with ProLong Glass Antifade Mountant (Invitrogen, P36982). We used a Zeiss LSM 880 confocal microscope with an AiryScan GaAsP detector equipped with a PlanApochromat 63×/1.4 NA objective. We used the BP 495–550 + LP 570 AiryScan filter and Zen Black in super-resolution mode for image acquisition. Pinhole size was adapted accordingly, and frame size was set to optimal. Sensors were set to continuous adjustment across the imaging sessions to ensure optimal sensor alignment and signal detection. Raw data were processed into AiryScan images with the autofilter mode on using Zen Blue. Finally, image analysis was performed in ImageJ by experimenters blinded for treatment and genotype. Spines were quantified in 15-µm-long dendrite sections.
# [3] = Y433F+/- neurons, vehicle mean 6.55
# [4] = Y433F+/-:vehicle minus Y433F+/-:treatment
# [5] = ext fig 1f, competition curve, n=5
# T2 sequence (Q63604 32-821): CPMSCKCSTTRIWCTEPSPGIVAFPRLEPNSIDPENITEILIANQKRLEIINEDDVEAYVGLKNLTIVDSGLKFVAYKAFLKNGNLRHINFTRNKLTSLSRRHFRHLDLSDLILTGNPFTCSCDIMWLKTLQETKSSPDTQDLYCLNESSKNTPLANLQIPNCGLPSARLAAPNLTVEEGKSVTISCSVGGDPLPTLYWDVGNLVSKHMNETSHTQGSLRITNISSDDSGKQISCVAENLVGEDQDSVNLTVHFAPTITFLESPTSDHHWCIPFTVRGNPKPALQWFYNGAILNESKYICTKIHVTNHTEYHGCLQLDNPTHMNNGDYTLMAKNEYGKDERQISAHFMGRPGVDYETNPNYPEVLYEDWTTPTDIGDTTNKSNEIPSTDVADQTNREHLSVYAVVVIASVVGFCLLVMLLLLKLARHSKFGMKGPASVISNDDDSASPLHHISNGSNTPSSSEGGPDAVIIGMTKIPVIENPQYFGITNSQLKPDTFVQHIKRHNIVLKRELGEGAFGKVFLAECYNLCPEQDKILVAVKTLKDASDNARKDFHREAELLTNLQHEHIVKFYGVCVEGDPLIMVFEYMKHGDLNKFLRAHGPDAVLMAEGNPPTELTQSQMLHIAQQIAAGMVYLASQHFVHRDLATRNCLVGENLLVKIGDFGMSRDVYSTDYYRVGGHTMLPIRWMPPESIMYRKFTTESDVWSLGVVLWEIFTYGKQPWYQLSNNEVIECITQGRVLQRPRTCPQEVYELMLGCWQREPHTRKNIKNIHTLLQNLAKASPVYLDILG
# T1 sequence (Q63604 32-821 Y433F): as the sequence (Q63604 32-821) above, with Y402F counted along it
# T1 sequence (Q63604 32-821, stated change not applied): as the sequence (Q63604 32-821) above
# T3 sequence (Q63604 32-821): as above
# T4 sequence (Q63604 32-821 Y433F): as the sequence (Q63604 32-821) above, with Y402F counted along it
Compound,TrkB dimerization [1],"TrkB dimerization (PCA), group mean (vehicle = 100) ([1]; 1nM)","TrkB dimerization (PCA), group mean (vehicle = 100) ([1]; 10nM)","TrkB dimerization (PCA), group mean (vehicle = 100) ([1]; 100nM)","TrkB dimerization (PCA), group mean (vehicle = 100) ([1]; 1uM)",Ki (TrkB),"Bmax (best-fit, 1b) (TrkB)","h (best-fit, 1b) (TrkB)",TrkB interaction with Fyn (TrkB(WT):Fyn),TrkB interaction with Fyn (TrkB(Y433F):Fyn),"6d: Mean (spinogenesis, spine density) ([2]; WT neurons, vehicle mean 5.7)","6d: Mean Diff. (vehicle vs. treatment), Bonferroni's multiple comparisons test ([2]; WT:vehicle minus WT:treatment)","6d: Mean (spinogenesis, spine density) [2, 3]","6d: Mean Diff. (vehicle vs. treatment), Bonferroni's multiple comparisons test [2, 4]",spine density [2],"6e: Mean Diff. (Vehicle:Vehicle vs. treatment), Bonferroni's multiple comparisons test ([2]; substance alone (with vehicle))","6e: Mean (spinogenesis, spine density) ([2]; substance alone (with vehicle))",further results
"CCN(CC)C(=O)C1C=C2c3cccc4[nH]cc(c34)CC2N(C)C1 (stereo not shown) [LSD, lysergic acid diethylamide]",this effect is abolished,113.3,121,118.1,109.7,3.38 ± 1.39 nM,104.9,-0.5005,increase TrkB interaction with lipid raft-restricted Fyn,this effect is lost,13,-7.3,7.5,-0.95,increase spine density,-7.6,14.65,"TrkB dimerization time course, group mean (time 0 = 100) ([1]; time 15): 129.4; TrkB dimerization time course, group mean (time 0 = 100) ([1]; time 60): 136.7; TrkB dimerization time course, group mean (time 0 = 100) ([1]; time 120): 108.3; TrkB dimerization time course, group mean (time 0 = 100) ([1]; time 240): 108.9; TrkB dimerization time course, group mean (time 0 = 100) ([1]; time 480): 60.33; 6e: Mean Diff. (Vehicle:Vehicle vs. treatment), Bonferroni's multiple comparisons test ([2]; LSD together with M100907): -7.65; 6e: Mean (spinogenesis, spine density) ([2]; LSD together with M100907): 14.7; 6e: Mean Diff. (Vehicle:Vehicle vs. treatment), Bonferroni's multiple comparisons test ([2]; LSD together with TrkB.FC): 0.25; 6e: Mean (spinogenesis, spine density) ([2]; LSD together with TrkB.FC): 6.8"
COc1cccc([C@H](O)C2CCN(CCc3ccc(F)cc3)CC2)c1OC [M100907],–,–,–,–,–,–,–,–,–,–,–,–,–,–,–,-2.8,9.85,"displacement of ^3H-LSD from TrkB (TrkB; 1 nM to 10 µM of drug): fail to displace LSD binding to TrkB; Fit status, specific binding with Hill slope (TrkB; ext fig 1f): Ambiguous; Bmax (specific binding with Hill slope, best-fit) (TrkB; [5]): 94.18; h (Hill slope, best-fit) (TrkB; [5]): ~ 1.901; effect of pretreatment on spinogenic effect of LSD ([2]; TrkB.FC 200 ng ml^−1 or M100907 100 nM): not M100907 prevented the spinogenic effect of LSD"
"CN(C)CCc1c[nH]c2cccc(O)c12 [PSI, psilocin]",this effect is abolished,110.2,90.04,84.39,73.58,6.73 ± 3.05 nM,100.9,-0.492,increase TrkB interaction with lipid raft-restricted Fyn,this effect is lost,10.5,-4.8,7,-0.45,increase spine density,–,–,"affinity to TrkB relative to other antidepressants (fluoxetine, ketamine) (TrkB; higher than other antidepressants): 1,000 fold"
